According to paper PMC6814738, “Bacterial MgrB peptide activates chemoreceptor Fpr3 in mouse accessory olfactory system and drives avoidance behaviour” (Nature Communications, 2019):
Where “and” joins values, the source holds several entries; their conditions need not be identical. Equal entries are not always repeated. Where two headings read alike, the source gives them in different places.

Legend:
[1] = test system: mouse Fpr3; settings: cited from earlier work
Procedure: We estimate the fraction of knobs responding to f-MKKFRW as ~0.15%, which is similar to the fraction of cells in the VNE that express Fpr3[30]. Strikingly, the sensitivity and sequence-selectivity profile of these responses was nearly identical to the results that we obtained for heterologously expressed Fpr3. The detection threshold of native VSNs for f-MKKFRW was ≤0.1 µM (Fig. 4f), virtually the same as for Fpr3-expres ... || Given the importance of the olfactory system in a variety of behavioural avoidance and defence mechanisms[14],[62],[63], we reasoned that in vivo detection of MgrB peptide may evoke an avoidance reaction in mice. We devised a behavioural assay[14],[60] in order to determine whether direct nasal contact with MgrB peptide evokes unconditioned, innate avoidance (Fig. 8a and Methods). […] (Fig ... || We used custom-made peptides with a length of 6–21 amino acids to screen for agonists. Sequences of fMet peptides were designed according to motifs present at the N-termini of 15,125 specific bacterial proteins as annotated in UniProt. Peptides were chemically synthesised, purified, and verified by mass spectroscopy (MALDI-TOF) by commercial suppliers. Purity of all peptides was >95%. Source, sequence and purity of each peptide are listed in Supplementary Data 1. Lyophilised peptides were routinely dissolved in the Ca^2+ imaging assay buffer C1 (130 mM NaCl, 10 mM HEPES, 5 mM KCl, 2 mM CaCl2, ...

[2] = test system: vomeronasal sensory neurons (VSNs); assay: VNO whole-mount en face confocal Ca2+ imaging of VSN dendritic knobs (Fig. 4, 5); type: cell-based, mouse; set-up: key to Ca2+ response of f-MKKFRW-responsive VSN knobs / Fpeak: normalised to knob resting fluorescence F0 before stimulation; settings: for Fpeak / Ca2+ response of f-MKKFRW-responsive VSN knobs: Fig. 4h; for Fpeak: mean of individual knobs, n = 103 f-MKKFRW, 21 f-MKKFRWVVL, 68 MKKFRW, 26 f-MGFFIS, 63 PUM; for Ca2+ responses in VSNs, in words: VNE of adult B6 mice, f-MKKFRW 1 µM; for Ca2+ response of f-MKKFRW-responsive VSN knobs: adult B6 mice, mean ± s.d., N = 103 (f-MKKFRW), 21 (f-MKKFRWVVL), 68 (MKKFRW), 26 (f-MGFFIS), 63 (PUM)
Text: Mice (6–20 week old, either sex) were euthanized by CO2 inhalation according to institutional guidelines. After decapitation, the skin was removed from the skull, the mandible was cut off and the cranium was opened by a sagittal cut, 1–2-mm right-lateral in parallel to the midline. The palate and the right incisor were removed and the hemisected skull was mounted in low-melting agarose (4%). The bony capsule of the VNO was opened with fine forceps and the nonsensory epithelium was stripped off. Tissue and cell debris were gently washed off, and the en face preparation was superfused with physiological S1 solution (120 mM NaCl, 25 mM NaHCO3, 5 mM KCl, 1 mM MgSO4, 1 mM CaCl2, 10 mM glucose, 5 mM BES, pH 7.3) saturated with carbogen (95% O2, 5% CO2).
Loading of the VNE with Rhod-2/AM (5–15 µM, 1 h) was performed in S1 solution under carbogen atmosphere at RT. Images were taken with an upright confocal laser scanning microscope (Leica TCS SP5 II, 20x water immersion objective HCX APO L20x/1.0w) equipped with Ar and He/Ne lasers. GFP was excited at 488 nm, Venus at 514 nm and Rhod-2 at 543 nm. Emission was measured at 490–520 nm (GFP), 520–600 nm (Venus) and 560–680 nm (Rhod-2). To minimise interference between Venus and Rhod-2 fluorescence, images were taken sequentially (sample interval per image, 3–4 s). Peptide stimuli were applied to the VNE surface with a local perfusion system which, when positioned close to the anterior end of the VNO, produced a continuous solution stream from rostral to caudal along the VNO axis. Data analysis was performed with the open source software ImageJ (NIH). Ca^2+ responses of individual dendritic knobs were normalised to the knob resting fluorescence level obtained before stimulation (ratio Fx/F0, Fx = actual fluorescence; F0 = mean fluorescence of 3–5 images before ligand application). Mapping was performed by superimposing Ca^2+ peak images onto images showing intrinsic fluorescence for specific markers.
Predator urine mix was composed of urine from mountain lion, coyote, bobcat, fox and marten (at equal volume ratios), purchased from Predatorpee (USA) and Kieferle (Germany). The fMet peptides were as described above. Stimuli were applied in S2 solution (140 mM NaCl, 5 mM KCl, 10 mM HEPES, 1 mM CaCl2, 1 mM MgCl2, 10 mM glucose, pH 7.3 with NaOH).

[3] = test system: male mice; assay: Behavioural avoidance test, FEU vs. FEU supplemented with peptide (Fig. 8, Supplementary Fig. 4); type: in vivo, mouse; settings: for avoidance, in words: 100 µM, B6 mice (f-MKKFRW also ΔFpr3-lacZ+/+, cGαo+/−, Trpc2+/−); for avoidance index: 100 µM in FEU, mean ± s.e.m.; for Preference (%): group mean value, FEU vs FEU supplemented with 100 µM peptide
Procedure: These assays were adapted from behavioural procedures described previously[14],[60]. We tested avoidance by giving adult male mice (8–14 week old) of various genotypes a choice to freely investigate two types of chemical stimuli: FEU vs. FEU supplemented with a peptide. Mice were sexually naïve and not exposed to the test stimuli prior to the testing day. Mice were habituated for three days (40 min each day) to clean filter papers (2.5 cm diameter), each deposited in a sterile plastic culture dish and placed in opposite corners of the test cage (30 × 12 cm). After the third habituation period, the test subject was transferred into a new cage containing fresh filter papers/dishes with either of the two test stimuli. One filter paper was impregnated with 45 µl of fresh urine pooled from two sexually naïve female B6 mice (8–16 weeks old) in oestrus (FEU, female oestrous urine) and 5 µl physiological solution containing (in mM): NaCl, 130; KCl, 5; Na-Hepes, 10; CaCl2, 2; glucose, 10; pH = 7.4. For testing the effects of specific peptides, the second filter paper was impregnated with FEU supplemented with a given peptide (100 or 50 µM final concentration, dissolved in physiological solution). Direct physical contact was allowed. Behaviour was recorded for 10 min from the top of the cage. Mice were exposed only once to a given peptide solution, and were exposed to only one peptide stimulus per day. Stimuli were presented in randomised order. […] This investigative behaviour was quantified as the time spent in close contact with each filter paper, scored manually by an observer blind to the experimental conditions using Behavioural Observation Research Interactive Software (BORIS)[85]. Contact time was measured as the time during which the nose crossed the border of a petri dish containing impregnated filter paper. An avoidance index was calculated as (TP — aTU)/(aTP + aTU), with TP as the time an individual mouse investigated a FEU-peptide mixture, aTP as the average time of all tested mice investigating this stimulus and aTU as the average time of all mice investigating FEU without added peptide. Negative values represent avoidance and positive values represent attraction. For analysing investigation of sick conspecifics, B6 mice were injected either with LPS or PBS as described above. In total, 4 h post injection, these mice were anaesthetised with 165 mg/kg ketamine (Pharmacia GmbH, Berlin, Germany) and 11 mg/kg xylazine (Bayer Health Care, Leverkusen, Germany) and then used in behavioural tests.

[4] = B6, n = 10-11, negative = avoidance

f-MLFYLA
agonism at mouse Fpr3, in words ([1]; signal peptide fragments): agonists for mouse Fpr3

f-MKKFRWVVL [MgrB nonapeptide]
Fpeak [2]: 0.64
Ca2+ responses in VSNs, in words [2]: VSNs that recognised f-MKKFRW responded also
Ca2+ response of f-MKKFRW-responsive VSN knobs [2]: 0.64 ± 0.45

f-MFQQNK [reference compound]
activation of heterologously expressed Fpr3, in words [1]: failed to activate heterologously expressed Fpr3
avoidance, in words [3]: failed to elicit avoidance
avoidance index [3, 4]: 0.04 ± 0.09

f-MLFYFS [signal peptide fragment identified as agonist for mouse Fpr3, reference compound]
agonism at mouse Fpr3, in words ([1]; signal peptide fragments): agonists for mouse Fpr3

W-peptide [reference compound]
agonism at mouse Fpr3, in words [1]: agonists for mouse Fpr3

MKKFRW [non-formylated MKKFRW peptide]
Fpeak [2]: 0.00
Ca2+ responses in VSNs, in words [2]: failed to evoke Ca^2+ responses in VSNs
Ca2+ response of f-MKKFRW-responsive VSN knobs [2]: 0.00 ± 0.00
avoidance, in words [3]: failed to elicit avoidance
avoidance index [3, 4]: 0.07 ± 0.05
Preference Index ([3]; Fig. 8c, individual values, B6 mice): -0.0604 and 0.2531 and -0.1298 and -0.1953 and 0.1497 and 0.2996 and 0.2407 and -0.00533 and -0.09796 and 0.2025 and 0.1402
Preference Index ([3]; Fig. 8c, mean, B6 mice, n = 11 f-MKKFRW, 11 MKKFRW, 10 f-MGFFIS, 10 f-MEQQNK, FEU control -0.002): 0.07
Preference Index ([3]; Fig. 8e, individual values, cGao +/-): -0.2952 and -0.1477 and 0.0923 and 0.1621 and -0.0653 and -0.08718 and -0.2984 and 0.512 and -0.2293 and -0.2843 and -0.4122 and -0.3523
Preference Index ([3]; Fig. 8e, individual values, cGao -/-): -0.00407 and 0.301 and 0.1658 and 0.1525 and 0.9449 and 0.3984 and 0.4927 and 0.2412 and 0.4087 and 0.6592 and -0.3896 and -0.3365 and -0.3471
Preference Index ([3]; Fig. 8e, mean, cGao +/-, n = 13 f-MKKFRW, 12 MKKFRW, FEU control -0.0358): -0.12
Preference Index ([3]; Fig. 8e, mean, cGao -/-, n = 13, FEU control 0.15): 0.21
Preference Index ([3]; Fig. 8f, individual values, Trpc2 +/-): 0.2866 and 0.03638 and -0.02867 and 0.9217 and 0.4878 and -0.4504 and -0.342 and -0.3772 and -0.3362
Preference Index ([3]; Fig. 8f, individual values, Trpc2 -/-): 1.085 and 1.60E-05 and 0.07163 and 0.2257 and 0.5213 and -0.3383 and -0.4081 and -0.0323
Preference Index ([3]; Fig. 8f, mean, Trpc2 +/-, n = 12 f-MKKFRW, 9 MKKFRW, FEU control -0.0531): 0.022
Preference Index ([3]; Fig. 8f, mean, Trpc2 -/-, n = 11 f-MKKFRW, 8 MKKFRW, FEU control -0.10): 0.14
Preference (%) ([3]; Fig. 8g, ∆Fpr3-lacZ +/+ males, FEU/FEU control -5.85844): 7.718%
Preference (%) ([3]; Fig. 8g, ∆Fpr3-lacZ -/- males, FEU/FEU control 2.58474): 9.878%
Preference (%) ([3]; Fig. 8h, Trpc2 +/- males, FEU/FEU control 0.100694): 6.911%
Preference (%) ([3]; Fig. 8h, Trpc2 -/- males, FEU/FEU control -3.21189): -1.784%
Preference Index ([3]; Fig. 8d, individual values, ∆Fpr3-lacZ +/+): -0.2521 and -0.1287 and 0.07074 and 0.3269 and 0.2942 and 0.3844
Preference Index ([3]; Fig. 8d, individual values, ∆Fpr3-lacZ -/-): -0.1393 and 0.3319 and 0.8558 and 1.088 and -0.03627 and 0.0259 and -0.07697 and -0.00886 and -0.09833 and -0.1976 and 0.3575 and 0.2784
Preference Index ([3]; Fig. 8d, mean, ∆Fpr3-lacZ +/+, n = 9 f-MKKFRW, 6 MKKFRW, FEU control -0.06): 0.12
Preference Index ([3]; Fig. 8d, mean, ∆Fpr3-lacZ -/-, n = 12, FEU control 0.19): 0.20
avoidance index ([3]; Trpc2 +/−): 0.02 ± 0.16
avoidance index ([3]; Trpc2 −/−): 0.14 ± 0.17
avoidance index ([3]; cGαo +/−): −0.12 ± 0.08
avoidance index ([3]; cGαo −/−, n = 13): 0.21 ± 0.11
avoidance index ([3]; ∆Fpr3-lacZ +/+): 0.12 ± 0.11
avoidance index ([3]; ∆Fpr3-lacZ −/−, n = 12): 0.20 ± 0.12
